Assay results taken from patent US10653688B2, “6-(6-membered heteroaryl and aryl)isoquinolin-3-yl carboxamides and preparation and use thereof” (Samumed, LLC, priority 2017, dated 2020).

Experiments:
[1] = test system: secreted cytokines TNFα, IL-6 and KC-GRO in BV-2 cells (mouse microglial cells); test: Secreted cytokines in lipopolysaccharide-stimulated mouse glial cell line; format: cell-based; conditions: LPS 250 ng/mL 5 hours, table does not say which cytokine
Outline: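 BV-2 cells seeded at 35,000/well were pretreated overnight with compound (10 μM to 4.6 nM final), then stimulated 5 h with 250 ng/mL E. coli O111:B4 LPS. Supernatant TNFα, IL-6 and KC-GRO were quantified by electrochemiluminescence against standard curves (pg/mL) to fit EC50. Cytotoxicity was checked by CellTiter-Glo ATP read-out.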

[2] = test system: IL-6 in human peripheral blood mononuclear cells (huPBMCs); test: IL-6 inhibition in LPS-stimulated human peripheral blood mononuclear cells (HTRF); format: cell-based; conditions: Homo sapiens, PBMC; for EC50: LPS 50 ng/mL, 22 hours, IL-6 HTRF; for inhibition at 10 µM: read-out: percent inhibition at 10 μM (given for EC50 >10 μM), LPS, IL-6, 10 μM
Outline: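 Fresh normal human PBMCs at 1×10e6 cells/mL in RPMI with 1% FBS received compound, then 50 ng/mL E. coli 0111:B4 LPS 2 h later, and were incubated a further 22 h at 37° C. IL-6 read by HTRF (665/620 nm ratio), normalized to DMSO; EC50 from 4-parameter fit.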

[3] = test system: pT212Tau in Dyrk1a- and MAPT-overexpressing HEK293T cells; test: Tau phosphorylation at Threonine 212 (pT212Tau) sandwich ELISA in double transfected cells; conditions: Homo sapiens, HEK-293T, read-out: Thr212 EC50 (μM)
[4] = test system: SW480 colon carcinoma cells; test: Cell viability assay (CellTiter-Glo); format: cell-based, human; conditions: Homo sapiens; for EC50: 96 h, four days, CellTiter-Glo; for inhibition at 10 µM: read-out: percent inhibition at 10 μM (given for EC50 >10 μM), 10 μM
[5] = test system: Wnt activity (SW480 colon carcinoma cells stably expressing the Sp5-Luc reporter gene); test: Wnt activity screening assay (Sp5-Luc reporter gene assay); format: cell-based, human; conditions: Homo sapiens; for EC50: 36 to 48 hours; for inhibition at 10 µM: read-out: percent inhibition at 10 μM (given for EC50 >10 μM), 10 μM
Outline: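 SW480 colon carcinoma cells stably carrying a lentiviral luciferase reporter driven by an Sp5 promoter with eight TCF/LEF sites, plated at 4,000 cells/well in DMEM with 1% FBS. Compound exposure for 36–48 h at 37 °C, then luminescence read. Signals normalized to DMSO; EC50 from four-parameter nonlinear fit.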

[6] = test system: LL29 cells (primary human fibroblasts derived from IPF patients), α-smooth muscle actin; test: Inhibition of fibrotic process: TGF-β1-treated primary human fibroblasts, αSMA staining; format: cell-based; conditions: Homo sapiens, Fibroblast; for EC50: 96 h, TGF-β1 20 ng/mL, 4 days, % cells positive for αSMA; for inhibition at 10 µM: read-out: percent inhibition at 10 μM (given for EC50 >10 μM), TGF-β1, αSMA, 10 μM;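 for all read-outs here: controls were TGF-β1-stimulated wells with DMSO vehicle as the positive reference and cells given DMSO alone as the negative reference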

Structure (SMILES) | EC50 [1] [nM] | EC50 [2] [nM] | EC50 [4] [nM] | EC50 [5] [nM] | inhibition at 10 µM [2] [%] | EC50 [3] [µM] | inhibition at 10 µM [4] [%] | inhibition at 10 µM [5] [%] | EC50 [6] [nM] | inhibition at 10 µM [6] [%]
O=C(Nc1cc2cc(-c3cnccn3)ccc2cn1)[C@H]1C[C@H](N2CCOCC2)C1 [Compound 69, trans-3-Morpholino-N-(6-(pyrazin-2-yl)isoquinolin-3-yl)cyclobutane-1-carboxamide] | 750 | > 10000 | > 10000 | > 10000 | 4.4 | 0.227 | 19.5 | 9 | 6730 | –
O=C(Nc1cc2cc(-c3cnccn3)ccc2cn1)[C@H]1CC[C@H](N2CCOCC2)CC1 [Compound 71, trans-4-Morpholino-N-(6-(pyrazin-2-yl)isoquinolin-3-yl)cyclohexane-1-carboxamide] | 629 | > 10000 | > 10000 | > 10000 | 11 | 0.019 | 14.6 | 32.1 | > 10000 | 43.4
O=C(Nc1cc2cc(-c3cnccn3)ccc2cn1)[C@H]1CC[C@H](CN2CC(F)C2)CC1 [Compound 72, trans-4-((3-Fluoroazetidin-1-yl)methyl)-N-(6-(pyrazin-2-yl)isoquinolin-3-yl)cyclohexane-1-carboxamide] | 1310 | > 10000 | > 10000 | > 10000 | 10 | 0.628 | 35.6 | 35.7 | 1830 | –
CN1CCN(C[C@H]2CC[C@H](C(=O)Nc3cc4cc(-c5cnccn5)ccc4cn3)CC2)CC1 [Compound 73, trans-4-((4-Methylpiperazin-1-yl)methyl)-N-(6-(pyrazin-2-yl)isoquinolin-3-yl)cyclohexane-1-carboxamide] | 694 | 320 | > 10000 | > 10000 | – | 0.024 | 50.7 | 33.3 | > 10000 | 43.1
CN1CCC(C(=O)Nc2cc3cc(-c4cnccn4)ccc3cn2)CC1 [Compound 75, 1-Methyl-N-(6-(pyrazin-2-yl)isoquinolin-3-yl)piperidine-4-carboxamide] | 194 | > 10000 | > 10000 | > 10000 | 27.5 | 0.089 | 44.5 | 33.7 | 1370 | –
O=C(Nc1cc2cc(-c3cnccn3)ccc2cn1)C1CCN(CCF)CC1 [Compound 77, 1-(2-Fluoroethyl)-N-(6-(pyrazin-2-yl)isoquinolin-3-yl)piperidine-4-carboxamide] | 280 | > 10000 | > 10000 | > 10000 | 9.6 | 0.062 | 33.8 | 36.4 | 4760 | –
CC(C)CN1CCCC(C(=O)Nc2cc3cc(-c4cnccn4)ccc3cn2)CC1 (stereo not drawn) [Compound 81, 1-Isobutyl-N-(6-(pyrazin-2-yl)isoquinolin-3-yl)azepane-4-carboxamide] | 1470 | > 10000 | > 10000 | > 10000 | 1.6 | 0.37 | 21.3 | 3.9 | 5460 | –
CC(C)Nc1cncc(-c2ccc3cnc(NC(=O)C4CCN(C)CC4)cc3c2)n1 [Compound 88, N-(6-(6-(Isopropylamino)pyrazin-2-yl)isoquinolin-3-yl)-1-methylpiperidine-4-carboxamide] | 1070 | 400 | 364 | 68 | – | < 0.003 | – | – | > 10000 | 31.9

Continued, in another order:

EC50 [1] [nM] | EC50 [2] [nM] | EC50 [4] [nM] | EC50 [5] [nM] | Structure (SMILES) | inhibition at 10 µM [2] [%] | EC50 [3] [µM] | inhibition at 10 µM [4] [%] | inhibition at 10 µM [5] [%] | EC50 [6] [nM] | inhibition at 10 µM [6] [%]
211 | 674 | 1220 | 738 | O=C(Nc1cc2cc(-c3cncc(NC4CCNCC4)n3)ccc2cn1)C1CCOCC1 [Compound 109, N-(6-(6-(Piperidin-4-ylamino)pyrazin-2-yl)isoquinolin-3-yl)tetrahydro-2H-pyran-4-carboxamide] | – | 0.014 | – | – | 27 | –
6080 | > 10000 | 1510 | 3150 | CN1CCN(c2cc(C(=O)Nc3cc4cc(-c5cnc6ocnc6c5)ccc4cn3)ccn2)CC1 [Compound 132, 2-(4-Methylpiperazin-1-yl)-N-(6-(oxazolo[5,4-b]pyridin-6-yl)isoquinolin-3-yl)isonicotinamide] | 8.5 | 6.2 | – | – | 1350 | –
2240 | 2110 | 2370 | 2590 | Cc1cc2ncc(-c3ccc4cnc(NC(=O)c5ccnc(N6CCN(C)CC6)c5)cc4c3)cc2[nH]1 [Compound 135, N-(6-(2-Methyl-1H-pyrrolo[3,2-b]pyridin-6-yl)isoquinolin-3-yl)-2-(4-methylpiperazin-1-yl)isonicotinamide] | – | 3.2 | – | – | 2480 | –
157 | > 10000 | > 10000 | > 10000 | O=C(CN1CCOCC1)Nc1cc2cc(-c3cccnc3)c(F)cc2cn1 [Compound 144, N-(7-Fluoro-6-(pyridin-3-yl)isoquinolin-3-yl)-2-morpholinoacetamide] | 9.4 | 0.051 | 22 | 23 | 4600 | –
157 | > 10000 | > 10000 | > 10000 | CN1CCN(CC(=O)Nc2cc3cc(-c4cccnc4)c(F)cc3cn2)CC1 [Compound 145, N-(7-Fluoro-6-(pyridin-3-yl)isoquinolin-3-yl)-2-(4-methylpiperazin-1-yl) acetamide] | 5.9 | 0.81 | 18.8 | 26.2 | 6520 | –
201 | > 10000 | > 10000 | > 10000 | Cc1cncc(-c2ccc3cnc(NC(=O)CN4CCOCC4)cc3c2)c1 [Compound 146, N-(6-(5-Methylpyridin-3-yl)isoquinolin-3-yl)-2-morpholinoacetamide] | 0 | 0.054 | 23.1 | 38.5 | > 10000 | 23.8
628 | > 10000 | > 10000 | > 10000 | COc1cncc(-c2ccc3cnc(NC(=O)CN4CCOCC4)cc3c2)c1 [Compound 147, N-(6-(5-Methoxypyridin-3-yl)isoquinolin-3-yl)-2-morpholinoacetamide] | 14.7 | 0.147 | 5.3 | 38.8 | > 10000 | 24.4
198 | > 10000 | > 10000 | > 10000 | [2H]C1([2H])OC([2H])([2H])C([2H])([2H])N(CC(=O)Nc2cc3cc(-c4cccnc4)ccc3cn2)C1([2H])[2H] [Compound 151, 2-(Morpholino-d8)-N-(6-(pyridin-3-yl)isoquinolin-3-yl)acetamide] | 6 | 0.009 | 24.6 | 10.7 | > 10000 | 21.2
